# Measured values published in publication PMC10545747, “Development of cyclopeptide inhibitors of cGAS targeting protein-DNA interaction and phase separation” (Nature Communications, 2023).
# Several values for one entry are separate records, joined by “and”; a condition that tells them apart may be missing. Equal entries are not always repeated. Square brackets hold non-standard residues; d marks the D form. Peptide text beside a SMILES is read from it.
# Legend:
# [1] = system: dsDNA-stimulated THP1 cells; assay: qPCR of IFNB1/CXCL10/IL6 mRNA in THP1 cells stimulated by dsDNA (ISD, HSV60mer); type: cell-based, human; conditions: for IFNB1 mRNA level (Fig. S7c): XQ2B; for Relative mRNA level CXCL10 (Fig. S7d) / Relative mRNA level IFNB1 (Fig. S7d) / Relative mRNA level IL6 (Fig. S7d): ISD +
# Text: To screen direct cGAS inhibitors targeting protein-DNA interface from our developed focused library of macrocyclic peptides, we applied an RNA-based fluorescent biosensor for 2’,3’-cGAMP to detect cGAS activity in vitro (Supplementary Fig. 1a)[49]. The formation of 2’,3’-cGAMP from ATP and GTP was catalyzed by recombinant human cGAS enzyme (hcGAS-ΔN, residues 147–522, Supplementary Fig. 1b) in the presence of ISD (interferon stimulatory DNA, a 45-bp dsDNA), which was readily quantified by the RNA-based fluorescent biosensor and was further confirmed by ion exchange chromatography (Supplementary Fig. 1c). […] Subsequently, a total of 90 macrocyclic peptides were screened at a concentration of 20 μM (Fig. 1a and Supplementary Fig. 1e), and 4 hits (XQ2, XQ8, XQ19, and XQ46) were obtained for further testing at a cut-off of 40% inhibition (Supplementary Table 1). To evaluate the inhibitory effect of the hits against cGAS in cells, we employed real-time quantitative PCR (qPCR) to examine mRNA levels of IFNΒ1 in THP1 cells. The reported cGAS inhibitor RU.521 was used as the positive control, and the non-active peptide XQ28 in the screening assay was used as the negative control. […] The inhibition of cGAS by these hits was further confirmed in the reporter cell line THP1-Lucia ISG (Invivogen) that expresses secreted luciferase induced by an IRF3-inducible ISG54 promoter (Fig. 1c). The discrepancy between the inhibitory effect of the hits in protein and cellular assays may be attributed to their different cellular permeability.
# (§1) The indicated cells were stimulated with either ISD (Sangon Biotech), HSV-1 (Provided by Dr. Zhengfan Jiang), HSV60mer (Sangon Biotech), SATE-cddA[70], 2’3’-cGAMP (Invivogen, Cat# tlrl-nacga23-1), ADU-S100 (MedChemExpress, Cat# HY-12885A) or Poly(I:C) (Invivogen, Cat# tlrl-pic) after XQ2 or XQ2B treatment. Total RNA was isolated from indicated cells that incubated with the drugs for indicated time or mice tissues by using NucleoZOL reagent (MACHEREY-NAGEL) according to the manufacturer’s instructions. The quantifications of mRNA levels were carried out by real-time PCR using a PerfectStart® Uni RT&qPCR Kit (TransGen Biotech) on the QuantStudio 5 qPCR machine (Applied Biosystems). Samples were carried out in triplicate and the target CT values were normalized to GAPDH CT values. Primers of qPCR used in this study can be found in Supplementary Table S2.
# [2] = system: THP1 cells stimulated with poly (I: C) (TLR3 and RIG-I/MDA-5 pathways); assay: qPCR of IFNB1 mRNA in THP1 cells stimulated by poly (I: C); type: cell-based, human
# Text: We next evaluated the inhibitory effect of XQ2 against cGAS in murine fibroblast L929 cells, macrophage RAW264.7 cells and primary bone marrow-derived macrophages (BMDMs) from C57BL/6 mice.
# as §1
# primary human PBMCs = assay: qPCR of IFNB1 and IL6 mRNA in ISD-stimulated PBMCs; type: cell-based; parameters: key to IFNB1 mRNA, qPCR, Fig. 2c / IL6 mRNA, qPCR, Fig. 2c / IFNB1 mRNA (Fig. S7f) / IL6 mRNA (Fig. S7f): relative mRNA level, target CT normalized to GAPDH CT
# Protocol: as §1
# [3] = system: macrophage RAW264.7 cells; assay: qPCR of Ifnb1/Cxcl10/Il6 mRNA in RAW264.7 cells (ISD or HSV-1); type: cell-based, mouse; parameters: key to Ifnb1 mRNA (Fig. S2c) / Cxcl10 mRNA (Fig. S2c) / Ifnb1 mRNA (Fig. S2d) / Cxcl10 mRNA (Fig. S2d) / Ifnb1 mRNA (Fig. S7g) / Cxcl10 mRNA (Fig. S7g) / Il6 mRNA (Fig. S7g): mRNA level normalized to GAPDH (relative expression)
# Protocol: as §1, with “S2. […]” for “S2.”
# (c) L929, p = 0.0005 (Ifnb1),
# BMDMs, p = 0.0001 (Ifnb1), p < 0.0001 (Cxcl10).
# representative of three independent experiments in (a-g). (Data are presented as mean ± SD, n = 3 independent
# Source data are provided as a Source Data file.
# [4] = Pharmacokinetics after intravenous administration; conditions: C57BL/6, mouse, whole blood, 10 mg/kg
compound,measurement,setting,value
CC(C)C[C@@H]1NC(=O)[C@H](CCCNC(=N)N)NC(=O)[C@H](C(C)C)NC(=O)[C@@H]2CCCN2C(=O)[C@@H](Cc2ccccc2)NC(=O)[C@H](CC(C)C)NC(=O)[C@H](CCCNC(=N)N)NC(=O)[C@H]([C@@H](C)O)NC(=O)[C@H](C)NC(=O)[C@@H](Cc2ccccc2)NC1=O [XQ2B] (cyclo([dF]ATRL[dF]PVRL)),IFNB1 mRNA level (Fig. S7c),[1]; HSV60mer,40.2098 and 37.8755 and 37.7329
same,Relative mRNA level CXCL10 (Fig. S7d),[1]; XQ2B 0.63 μM,75.7262 and 111.48 and 109.732
same,Relative mRNA level IFNB1 (Fig. S7d),[1]; XQ2B 0.63 μM,143.341 and 159.417 and 146.307
same,Relative mRNA level IL6 (Fig. S7d),[1]; XQ2B 0.63 μM,4.851 and 5.001 and 4.853
same,Relative mRNA level CXCL10 (Fig. S7d),[1]; XQ2B 1.25 μM,71.0232 and 80.5931 and 82.552
same,Relative mRNA level IFNB1 (Fig. S7d),[1]; XQ2B 1.25 μM,150.862 and 127.331 and 129.696
same,Relative mRNA level IL6 (Fig. S7d),[1]; XQ2B 1.25 μM,5.209 and 4.534 and 5.634
same,Relative mRNA level CXCL10 (Fig. S7d),[1]; XQ2B 2.5 μM,65.3896 and 90.4406 and 75.1347
same,Relative mRNA level IFNB1 (Fig. S7d),[1]; XQ2B 2.5 μM,125.32 and 106.736 and 118.852
same,Relative mRNA level IL6 (Fig. S7d),[1]; XQ2B 2.5 μM,3.096 and 3.258 and 2.284
same,Relative mRNA level CXCL10 (Fig. S7d),[1]; XQ2B 5 μM,49.8503 and 48.6212 and 43.7599
same,Relative mRNA level IFNB1 (Fig. S7d),[1]; XQ2B 5 μM,64.7201 and 61.5772 and 71.2108
same,Relative mRNA level CXCL10 (Fig. S7d),[1]; XQ2B 10 μM,34.1653 and 30.6356 and 36.3338
same,Relative mRNA level IFNB1 (Fig. S7d),[1]; XQ2B 10 μM,33.5888 and 35.227 and 34.4163
same,Relative mRNA level IL6 (Fig. S7d),[1]; XQ2B 10 μM,0.9806 and 0.7505 and 1.24
same,Relative mRNA level CXCL10 (Fig. S7d),[1]; XQ2B 20 μM,10.6053 and 10.5964 and 12.3293
same,Relative mRNA level IFNB1 (Fig. S7d),[1]; XQ2B 20 μM,3.764 and 4.346 and 4.187
same,IFNB1 mRNA level (Fig. S7c),[1]; ISD,15.0362 and 16.705 and 17.0928
same,IFNB1 mRNA level (Fig. S7c),[1]; Mock,1.262 and 0.9081 and 0.8724
same,"dsDNA/ISD-induced IFNB1, CXCL10, IL6 expression",[1]; THP1,comparable cGAS inhibitory effect as that of XQ2
same,IFNB1 mRNA level (Fig. S7c),"[2]; Poly(I:C), XQ2B",1527.76 and 1720.01 and 1878.29
same,poly (I: C)-induced IFNB1 expression,"[2]; THP1, 10 μM",no significant effect on signaling induced by STING agonists or TLR3 agonist such as poly (I: C)
same,ISD-induced IFNB1 and IL6 expression in PBMCs,primary human PBMCs; 10 μM,significantly inhibit the activation of cGAS induced by ISD
same,IFNB1 mRNA (Fig. S7f),"primary human PBMCs; PBMCs, ISD+XQ2B",841.807 and 913.377 and 771.009
same,IL6 mRNA (Fig. S7f),"primary human PBMCs; PBMCs, ISD+XQ2B",1185.13 and 642.626 and 1199.71
same,Cxcl10 mRNA (Fig. S7g),[3]; ISD+XQ2B,1166.92 and 1221.79 and 1328.72
same,Ifnb1 mRNA (Fig. S7g),[3]; ISD+XQ2B,1896.14 and 2591.99 and 2490
same,Il6 mRNA (Fig. S7g),[3]; ISD+XQ2B,1526.53 and 1838.42 and 1588.85
same,Cxcl10 mRNA (Fig. S7g),[3]; XQ2B alone,2.509 and 2.275 and 2.115
same,Ifnb1 mRNA (Fig. S7g),[3]; XQ2B alone,1.291 and 1.1996 and 1.38
same,AUC(0-inf),[4],157 µg·h/mL
same,AUC(0-t),[4],135 µg·h/mL
same,Cmax,[4],105 µg/mL
same,MRT last,[4],72 min
same,Tmax,[4],4.98 min
same,Vd,[4],0.095 L/kg
same,clearance,[4],0.071 L/h/kg
